According to ChEMBL document CHEMBL3286119, “Biarylmethoxy Nicotinamides As Novel and Specific Inhibitors of Mycobacterium tuberculosis” (ACS Med Chem Lett, 2014):
Activity calls are given as the source filed them.

Key:
Type in all cases: functional, organism-based
[1] = test system: Mycobacterium tuberculosis; experiment: Antimicrobial activity against rifampicin-resistant Mycobacterium tuberculosis 19000 after 2 to 3 weeks
[2] = test system: Mycobacterium tuberculosis; experiment: Antimicrobial activity against streptomycin-resistant Mycobacterium tuberculosis ATCC 35820 after 2 to 3 weeks
[3] = test system: Mycobacterium tuberculosis; experiment: Antimicrobial activity against isoniazid-resistant Mycobacterium tuberculosis ATCC 35822 after 2 to 3 weeks
[4] = test system: Mycobacterium tuberculosis; experiment: Antimicrobial activity against ethionamide-resistant Mycobacterium tuberculosis 1700 after 2 to 3 weeks

Measured: Activity

NC(=O)c1cccnc1OCc1ncc(-c2ccc(OCCCF)cc2Cl)cn1
active: all assays above

CC(C)OCCOc1ccc(-c2cnc(COc3ncccc3C(N)=O)nc2)c(Cl)c1
active: all assays above

COCCOc1ccc(-c2ccc(COc3ncccc3C(N)=O)nc2)c(C)c1
active: all assays above
